This is an account of results in ChEMBL document CHEMBL2086228, “Radiosynthesis and in vivo tumor uptake of 2-deoxy-2-[(18)F]fluoro-myo-inositol” (Bioorg Med Chem Lett, 2012).

Data set [1] can be described thus: Drug uptake in tumor of human MDA-MB-231 cells xenografted athymic nude BALB/c mouse at 3 to 3.7 MBq, iv up to 10 mins by PET scanning analysis. It is filed as ADME, organism-based, Neoplasm. Particulars: in vivo. A general note: Xenograft models place foreign cells or tissue in a host animal; call rule not given here.
The nature of data set [2]: Drug uptake in tumor of human MDA-MB-231 cells xenografted athymic nude BALB/c mouse at 3 to 3.7 MBq, iv up to 60 mins by PET scanning analysis. It is filed as ADME, organism-based, Neoplasm. To be noted: in vivo, 1 h.
The subject of the next data set is Nucleic Acid. Put plainly: Ratio of drug level in liver to blood in athymic nude BALB/c mouse xenografted with human MDA-MB-231 cells at 3 to 3.7 MBq, iv after 60 mins by gamma counting. It is filed as ADME, organism-based. To be noted: other tissue, 1 h.
The subject of a further data set is Urinary bladder. In words: Drug uptake in bladder of athymic nude BALB/c mouse xenografted with human MDA-MB-231 cells at 3 to 3.7 MBq, iv at 30 to 60 mins by PET scanning analysis. It is filed as ADME, organism-based. Particulars: in vivo.
Another data set has as its system Kidney. In words: Drug uptake in kidney of athymic nude BALB/c mouse xenografted with human MDA-MB-231 cells at 3 to 3.7 MBq, iv up to 60 mins by PET scanning analysis. It is filed as ADME, organism-based. To be noted: in vivo, 1 h.
A further data set concerns Heart. Put plainly: Drug uptake in heart of athymic nude BALB/c mouse xenografted with human MDA-MB-231 cells at 3 to 3.7 MBq, iv at 30 to 60 mins by PET scanning analysis. It is filed as ADME, organism-based. Particulars: in vivo.

Regarding `O[C@@H]1[C@@H](O)[C@H](O)[C@@H]([18F])[C@H](O)[C@H]1O`, the Drug uptake entry in data set [1] and in data set [2] was “Active” each time. Besides, in the data set with Nucleic Acid, the Ratio stood at 1.5.

`O[C@@H]1[C@@H](O)[C@H](O)[C@H]([18F])[C@H](O)[C@H]1O`: the Drug uptake result (with Urinary bladder; with Kidney; in data set [1]; in data set [2]; in the data set with Heart) was “Active” each time. The Ratio in the data set on Nucleic Acid was determined as 1.7.
